Among the data in ChEMBL document CHEMBL1649191, “Genetic organization of transposase regions surrounding blaKPC carbapenemase genes on plasmids from Klebsiella strains isolated in a New York City hospital” (2009) are MIC values, retold here.

What all share (format): functional
The test system of assay [1] is Klebsiella pneumoniae. Nature of the assay: Antimicrobial activity against blaKPC-positive Klebsiella pneumoniae S10 by broth microdilution method. On the technique in general: Broth dilution looks for growth in wells or tubes with falling amounts of substance.
For a further assay, the system named is Klebsiella oxytoca. Kind of assay: Antimicrobial activity against blaKPC-positive Klebsiella oxytoca S13 by broth microdilution method.
Assay [2] relates to Klebsiella pneumoniae. Nature of the assay: Antimicrobial activity against blaKPC-positive Klebsiella pneumoniae S12 by broth microdilution method.
Assay [3] has as its system Klebsiella pneumoniae. Kind of assay: Antimicrobial activity against blaKPC-positive Klebsiella pneumoniae S6 by broth microdilution method.
For assay [4], the system named is Klebsiella pneumoniae. Kind of assay: Antimicrobial activity against blaKPC-positive Klebsiella pneumoniae S14 by broth microdilution method.
For assay [5], the system named is Klebsiella pneumoniae. Kind of assay: Antimicrobial activity against blaKPC-positive Klebsiella pneumoniae S5 by broth microdilution method.
Assay [6] relates to Klebsiella pneumoniae. Kind of assay: Antimicrobial activity against blaKPC-positive Klebsiella pneumoniae S2 by broth microdilution method.
Assay [7] has as its system Klebsiella pneumoniae. Nature of the assay: Antimicrobial activity against blaKPC-positive Klebsiella pneumoniae S3 by broth microdilution method.
Assay [8] has as its system Klebsiella pneumoniae. Nature of the assay: Antimicrobial activity against blaKPC-positive Klebsiella pneumoniae S9 by broth microdilution method.
The subject of assay [9] is Klebsiella pneumoniae. Nature of the assay: Antimicrobial activity against blaKPC-positive Klebsiella pneumoniae S11 by broth microdilution method.
In assay [10] the test system is Klebsiella pneumoniae. Nature of the assay: Antimicrobial activity against blaKPC-positive Klebsiella pneumoniae S1 by broth microdilution method.
Assay [11] concerns Klebsiella pneumoniae. Kind of assay: Antimicrobial activity against blaKPC-positive Klebsiella pneumoniae S4 by broth microdilution method.
For assay [12], the system named is Klebsiella pneumoniae. Nature of the assay: Antimicrobial activity against blaKPC-positive Klebsiella pneumoniae S8 by broth microdilution method.
Assay [13] deals with Klebsiella pneumoniae. Nature of the assay: Antimicrobial activity against blaKPC-positive Klebsiella pneumoniae S7 by broth microdilution method.
Assay [14] deals with Klebsiella pneumoniae. Nature of the assay: Antimicrobial activity against blaKPC-positive Klebsiella pneumoniae S15 by broth microdilution method.

In brackets after ≈: the same amount, converted by molar mass.

As to `NCC[C@H](O)C(=O)N[C@@H]1C[C@H](N)[C@@H](O[C@H]2O[C@H](CN)[C@@H](O)[C@H](O)[C@H]2O)[C@H](O)[C@H]1O[C@H]1O[C@H](CO)[C@@H](O)[C@H](N)[C@H]1O` [AMIKACIN], the minimum inhibitory concentration (MIC) (usually the smallest concentration in the dilution series that meets the test's criterion for growth inhibition) in the assay on Klebsiella pneumoniae [1] is over 64 mg/L; against Klebsiella oxytoca it was 4 mg/L (≈ 6.83 µM); in the assay with Klebsiella pneumoniae [2] it was 16 mg/L (≈ 27.3 µM); in the assay on Klebsiella pneumoniae [3], 32 mg/L (≈ 54.6 µM); against Klebsiella pneumoniae [4], 32 mg/L (≈ 54.6 µM); with Klebsiella pneumoniae [5], 64 mg/L (≈ 109 µM). For the same compound, the MIC against Klebsiella pneumoniae [6] came out at 32 mg/L (≈ 54.6 µM); with Klebsiella pneumoniae [7], 32 mg/L (≈ 54.6 µM); in the assay with Klebsiella pneumoniae [8], 16 mg/L (≈ 27.3 µM); in the assay with Klebsiella pneumoniae [9] it was 2 mg/L (≈ 3.42 µM); in the assay on Klebsiella pneumoniae [10] it was 16 mg/L (≈ 27.3 µM); against Klebsiella pneumoniae [11], 1 mg/L (≈ 1.71 µM). Also, the minimal inhibitory concentration (MIC) against Klebsiella pneumoniae [12] was over 64 mg/L; in the assay with Klebsiella pneumoniae [13] it was 1 mg/L (≈ 1.71 µM); in the assay with Klebsiella pneumoniae [14], 32 mg/L (≈ 54.6 µM).

On to `C[C@@H](O)[C@H]1C(=O)N2C(C(=O)O)=C(SCCNC=N)C[C@H]12` [IMIPENEM ANHYDROUS], for which the MIC with Klebsiella pneumoniae [1] is 64 mg/L (≈ 214 µM); in the assay on Klebsiella oxytoca, 32 mg/L (≈ 107 µM); in the assay with Klebsiella pneumoniae [2], 32 mg/L (≈ 107 µM); against Klebsiella pneumoniae [3], 32 mg/L (≈ 107 µM); with Klebsiella pneumoniae [4], over 64 mg/L; with Klebsiella pneumoniae [5] it was 64 mg/L (≈ 214 µM). For the same compound, the MIC in the assay on Klebsiella pneumoniae [6] is 32 mg/L (≈ 107 µM); in the assay on Klebsiella pneumoniae [7] it was 32 mg/L (≈ 107 µM); against Klebsiella pneumoniae [8], over 64 mg/L; with Klebsiella pneumoniae [9], 32 mg/L (≈ 107 µM); in the assay on Klebsiella pneumoniae [10] it was 32 mg/L (≈ 107 µM); in the assay on Klebsiella pneumoniae [11] it was 8 mg/L (≈ 26.7 µM). Also, the minimum inhibitory concentration (MIC) with Klebsiella pneumoniae [12] worked out at 64 mg/L (≈ 214 µM); in the assay on Klebsiella pneumoniae [13], 32 mg/L (≈ 107 µM); with Klebsiella pneumoniae [14], 64 mg/L (≈ 214 µM).

Consider `C[C@@H](O)[C@H]1C(=O)N2C(C(=O)O)=C(S[C@@H]3CN[C@H](C(=O)N(C)C)C3)[C@H](C)[C@H]12` [MEROPENEM], for which the MIC with Klebsiella pneumoniae [1] was determined as 64 mg/L (≈ 167 µM); against Klebsiella oxytoca, 32 mg/L (≈ 83.4 µM); against Klebsiella pneumoniae [2] it was 32 mg/L (≈ 83.4 µM); in the assay with Klebsiella pneumoniae [3], 64 mg/L (≈ 167 µM); in the assay with Klebsiella pneumoniae [4], 64 mg/L (≈ 167 µM); against Klebsiella pneumoniae [5] it was 64 mg/L (≈ 167 µM). For the same compound, the MIC against Klebsiella pneumoniae [6] was 64 mg/L (≈ 167 µM); against Klebsiella pneumoniae [7], 64 mg/L (≈ 167 µM); against Klebsiella pneumoniae [8] it was over 64 mg/L; in the assay with Klebsiella pneumoniae [9], 32 mg/L (≈ 83.4 µM); against Klebsiella pneumoniae [10], over 64 mg/L; in the assay with Klebsiella pneumoniae [12] it was 64 mg/L (≈ 167 µM). The minimum inhibitory concentration (MIC) against Klebsiella pneumoniae [13] stood at 32 mg/L (≈ 83.4 µM); against Klebsiella pneumoniae [14], 64 mg/L (≈ 167 µM).

For POLYMYXIN B, the minimal inhibitory concentration (MIC) is 4 mg/L against Klebsiella pneumoniae [1]; 4 mg/L in the assay on Klebsiella oxytoca; 2 mg/L against Klebsiella pneumoniae [2]; 16 mg/L with Klebsiella pneumoniae [3]; 1 mg/L against Klebsiella pneumoniae [4]; 4 mg/L in the assay with Klebsiella pneumoniae [5]. Besides, the MIC was determined as 8 mg/L in the assay on Klebsiella pneumoniae [6]; 8 mg/L with Klebsiella pneumoniae [7]; 4 mg/L against Klebsiella pneumoniae [8]; 16 mg/L with Klebsiella pneumoniae [9]; 2 mg/L against Klebsiella pneumoniae [10]; 8 mg/L against Klebsiella pneumoniae [11]. In addition, the MIC worked out at 8 mg/L against Klebsiella pneumoniae [12], 16 mg/L against Klebsiella pneumoniae [13] and 4 mg/L with Klebsiella pneumoniae [14].

For `CO/N=C(\C(=O)N[C@@H]1C(=O)N2C(C(=O)[O-])=C(C[N+]3(C)CCCC3)CS[C@H]12)c1csc(N)n1`, the minimum inhibitory concentration (MIC) with Klebsiella pneumoniae [1], against Klebsiella oxytoca, in the assay with Klebsiella pneumoniae [2], with Klebsiella pneumoniae [3], with Klebsiella pneumoniae [4] and in the assay on Klebsiella pneumoniae [5] was over 64 mg/L each time. Further, the MIC in the assay on Klebsiella pneumoniae [6] is over 64 mg/L; in the assay with Klebsiella pneumoniae [7], over 64 mg/L; in the assay on Klebsiella pneumoniae [8] it was over 64 mg/L; in the assay on Klebsiella pneumoniae [9], over 64 mg/L; against Klebsiella pneumoniae [10], 32 mg/L (≈ 66.6 µM); against Klebsiella pneumoniae [11] it was 64 mg/L (≈ 133 µM). In addition, the results for the minimal inhibitory concentration (MIC) against Klebsiella pneumoniae [12], in the assay on Klebsiella pneumoniae [13] and against Klebsiella pneumoniae [14] were 64 mg/L (≈ 133 µM), over 64 mg/L and over 64 mg/L, respectively.

As to `CN(C)c1cc(NC(=O)CNC(C)(C)C)c(O)c2c1C[C@H]1C[C@H]3[C@H](N(C)C)C(O)=C(C(N)=O)C(=O)[C@@]3(O)C(O)=C1C2=O` [TIGECYCLINE], the MIC against Klebsiella pneumoniae [1] turned out to be 1 mg/L (≈ 1.71 µM); against Klebsiella oxytoca it was 0.25 mg/L (≈ 0.427 µM); against Klebsiella pneumoniae [2] it was 0.25 mg/L (≈ 0.427 µM); against Klebsiella pneumoniae [3], 4 mg/L (≈ 6.83 µM); in the assay with Klebsiella pneumoniae [4], 0.25 mg/L (≈ 0.427 µM); in the assay with Klebsiella pneumoniae [5], 1 mg/L (≈ 1.71 µM). In addition, the minimum inhibitory concentration (MIC) in the assay on Klebsiella pneumoniae [6] worked out at 1 mg/L (≈ 1.71 µM); in the assay with Klebsiella pneumoniae [7] it was 1 mg/L (≈ 1.71 µM); against Klebsiella pneumoniae [8], 2 mg/L (≈ 3.41 µM); against Klebsiella pneumoniae [9], 0.25 mg/L (≈ 0.427 µM); against Klebsiella pneumoniae [10] it was 1 mg/L (≈ 1.71 µM); against Klebsiella pneumoniae [11] it was 0.5 mg/L (≈ 0.854 µM). Further, the minimum inhibitory concentration (MIC) in the assay on Klebsiella pneumoniae [12] is 2 mg/L (≈ 3.41 µM); against Klebsiella pneumoniae [13], 0.5 mg/L (≈ 0.854 µM); in the assay with Klebsiella pneumoniae [14], 1 mg/L (≈ 1.71 µM).

Consider `O=C(O)c1cn(C2CC2)c2cc(N3CCNCC3)c(F)cc2c1=O` [CIPROFLOXACIN], for which the MIC with Klebsiella pneumoniae [1] is over 64 mg/L; in the assay on Klebsiella oxytoca it was 0.06 mg/L (≈ 0.181 µM); in the assay on Klebsiella pneumoniae [2], under 0.06 mg/L; against Klebsiella pneumoniae [3], over 64 mg/L; against Klebsiella pneumoniae [4], 64 mg/L (≈ 193 µM); against Klebsiella pneumoniae [5] it was over 64 mg/L. Moreover, the minimal inhibitory concentration (MIC) in the assay with Klebsiella pneumoniae [6] was over 64 mg/L; against Klebsiella pneumoniae [7], over 64 mg/L; in the assay with Klebsiella pneumoniae [8], over 64 mg/L; with Klebsiella pneumoniae [9] it was 1 mg/L (≈ 3.02 µM); against Klebsiella pneumoniae [10] it was over 64 mg/L; in the assay on Klebsiella pneumoniae [11] it was 0.06 mg/L (≈ 0.181 µM). Besides, the MIC against Klebsiella pneumoniae [12] is over 64 mg/L; in the assay with Klebsiella pneumoniae [13], 32 mg/L (≈ 96.6 µM); in the assay with Klebsiella pneumoniae [14] it was over 64 mg/L.

GENTAMICIN: the MIC in the assay with Klebsiella pneumoniae [1] turned out to be 8 mg/L; in the assay on Klebsiella oxytoca, 8 mg/L; against Klebsiella pneumoniae [2], 16 mg/L; against Klebsiella pneumoniae [3] it was 1 mg/L; in the assay on Klebsiella pneumoniae [4], 32 mg/L; in the assay with Klebsiella pneumoniae [5], 1 mg/L. Moreover, the MIC against Klebsiella pneumoniae [6] turned out to be 2 mg/L; in the assay with Klebsiella pneumoniae [7] it was 2 mg/L; with Klebsiella pneumoniae [8] it was 1 mg/L; in the assay with Klebsiella pneumoniae [12], 8 mg/L; in the assay on Klebsiella pneumoniae [13] it was 8 mg/L; with Klebsiella pneumoniae [14] it was 2 mg/L.

As to `C[C@H]1[C@H](NC(=O)/C(=N\OC(C)(C)C(=O)O)c2csc(N)n2)C(=O)N1S(=O)(=O)O` [AZTREONAM], the MIC against Klebsiella pneumoniae [1], with Klebsiella oxytoca, in the assay with Klebsiella pneumoniae [2], in the assay with Klebsiella pneumoniae [3], in the assay with Klebsiella pneumoniae [4] and in the assay with Klebsiella pneumoniae [5] was over 64 mg/L in each case. Besides, the MIC in the assay on Klebsiella pneumoniae [6], in the assay with Klebsiella pneumoniae [7], with Klebsiella pneumoniae [8], against Klebsiella pneumoniae [9], in the assay with Klebsiella pneumoniae [10] and against Klebsiella pneumoniae [11] was over 64 mg/L throughout. Moreover, the MIC with Klebsiella pneumoniae [12], against Klebsiella pneumoniae [13] and in the assay with Klebsiella pneumoniae [14] was over 64 mg/L each time.

Regarding `CC(C)(O/N=C(\C(=O)N[C@@H]1C(=O)N2C(C(=O)[O-])=C(C[n+]3ccccc3)CS[C@H]12)c1csc(N)n1)C(=O)O` [CEFTAZIDIME], the minimal inhibitory concentration (MIC) against Klebsiella pneumoniae [1], against Klebsiella oxytoca, against Klebsiella pneumoniae [2], against Klebsiella pneumoniae [3], with Klebsiella pneumoniae [4] and against Klebsiella pneumoniae [5] was over 64 mg/L in each case. Besides, the minimal inhibitory concentration (MIC) was over 64 mg/L against Klebsiella pneumoniae [6]; 64 mg/L (≈ 117 µM) with Klebsiella pneumoniae [7]; over 64 mg/L in the assay with Klebsiella pneumoniae [8]; 16 mg/L (≈ 29.3 µM) in the assay with Klebsiella pneumoniae [9]; over 64 mg/L against Klebsiella pneumoniae [10]; 8 mg/L (≈ 14.6 µM) in the assay on Klebsiella pneumoniae [11]. Besides, the MIC against Klebsiella pneumoniae [12] was over 64 mg/L; in the assay with Klebsiella pneumoniae [13], 32 mg/L (≈ 58.5 µM); against Klebsiella pneumoniae [14], over 64 mg/L.
